Results published in patent US20060100245A1, “Substituted biphenyl-4-carboxylic acid arylamide analogues” (Neurogen Corporation, priority 2002, published 2006).

Biological target: T1, human capsaicin receptor (VR1) (Homo sapiens, UniProt Q8NER1)
T1 construct: transfected with the pBK-CMV expression construct encoding the full length human capsaicin receptor; expressed in transfected cells
Experiment: Capsaicin receptor binding assay ([3H]RTX competition)
Details: read-out: Ki
Excerpt: This Example illustrates the preparation of VR1-transfected cells and membrane preparations for use in binding assays (Example 5) and functional assays (Example 6).
A cDNA encoding full length human capsaicin receptor (SEQ ID NO: 1, 2 or 3 of U.S. Pat. No. 6,482,611) was subcloned in the plasmid pBK-CMV (Stratagene, La Jolla, Calif.) for recombinant expression in mammalian cells.
Human embryonic kidney (HEK293) cells were transfected with the pBK-CMV expression construct encoding the full length human capsaicin receptor using standard methods. The transfected cells were selected for two weeks in media containing G418 ([…]) to obtain a pool of stably transfected cells. Independent clones were isolated from this pool by limiting dilution to obtain clonal stable cell lines for use in subsequent experiments.
For radioligand binding experiments, cells were seeded in T175 cell culture flasks in media without antibiotics and grown to approximately 90% confluency. The flasks were then washed with PBS and harvested in PBS containing 5 mM EDTA. The cells were pelleted by gentle centrifugation and stored at −80° C. until assayed.
Previously frozen cells were disrupted with the aid of a tissue homogenizer in ice-cold HEPES homogenization buffer (5mM KCl 5, 5.8 mM NaCl, 0.75 mM CaCl2, 2 mM MgCl2, 320 mM sucrose, and 10 mM HEPES pH 7.4). Tissue homogenates were first centrifuged for 10 minutes at 1000×g (4° C.) to remove the nuclear fraction and debris, and then the supernatant from the first centrifugation is further centrifuged for 30 minutes at 35,000×g (4° C.) to obtain a partially purified membrane fraction. Membranes were resuspended in the HEPES homogenization buffer prior to the assay. An aliquot of this membrane homogenate is used to determine protein concentration via the Bradford method (BIO-RAD Protein Assay Kit, #500-0001, BIO-RAD, Hercules, Calif.).
This Example illustrates a representative assay of capsaicin receptor binding that may be used to determine the binding affinity of compounds for the capsaicin (VR1) receptor.
Binding studies with [^3H] Resiniferatoxin (RTX) are carried out essentially as described by Szallasi and Blumberg (1992) J. Pharmacol. Exp. Ter. 262: 883-888. In this protocol, non-specific RTX binding is reduced by adding bovine alpha, acid glycoprotein (100 μg per tube) after the binding reaction has been terminated.
[^3H] RTX (37 Ci/mmol) is synthesized by and obtained from the Chemical Synthesis and Analysis Laboratory, National Cancer Institute-Frederick Cancer Research and Development Center, Frederick, Md. [^3H] RTX may also be obtained from commercial vendors (e.g., Amersham Pharmacia Biotech, Inc.; Piscataway, N.J.).
The membrane homogenate of Example 4 is centrifuged as before and resuspended to a protein concentration of 333 μg/ml in homogenization buffer. Binding assay mixtures are set up on ice and contain [^3H]JRTX (specific activity 2200 mCi/ml), 2 μl non-radioactive test compound, 0.25 mg/ml bovine serum albumin (Cohn fraction V), and 5×10^4−1×10^5 VR1-transfected cells. The final volume is adjusted to 500 μl (for competition binding assays) or 1,000 μl (for saturation binding assays) with the ice-cold HEPES homogenization buffer solution (pH 7.4) described above. Non-specific binding is defined as that occurring in the presence of 1 μM non-radioactive RTX (Alexis Corp.; San Diego, Calif.). For saturation binding, [^3H]RTX is added in the concentration range of […], using 1 to 2 dilutions. Typically 11 concentration points are collected per saturation binding curve.
Competition binding assays are performed in the presence of 60 pM [^3H]RTX and various concentrations of test compound. The binding reactions are initiated by transferring the assay mixtures into a 37° C. water bath and are terminated following a 60 minute incubation period by cooling the tubes on ice.

T1 sequence (Q8NER1 whole entry): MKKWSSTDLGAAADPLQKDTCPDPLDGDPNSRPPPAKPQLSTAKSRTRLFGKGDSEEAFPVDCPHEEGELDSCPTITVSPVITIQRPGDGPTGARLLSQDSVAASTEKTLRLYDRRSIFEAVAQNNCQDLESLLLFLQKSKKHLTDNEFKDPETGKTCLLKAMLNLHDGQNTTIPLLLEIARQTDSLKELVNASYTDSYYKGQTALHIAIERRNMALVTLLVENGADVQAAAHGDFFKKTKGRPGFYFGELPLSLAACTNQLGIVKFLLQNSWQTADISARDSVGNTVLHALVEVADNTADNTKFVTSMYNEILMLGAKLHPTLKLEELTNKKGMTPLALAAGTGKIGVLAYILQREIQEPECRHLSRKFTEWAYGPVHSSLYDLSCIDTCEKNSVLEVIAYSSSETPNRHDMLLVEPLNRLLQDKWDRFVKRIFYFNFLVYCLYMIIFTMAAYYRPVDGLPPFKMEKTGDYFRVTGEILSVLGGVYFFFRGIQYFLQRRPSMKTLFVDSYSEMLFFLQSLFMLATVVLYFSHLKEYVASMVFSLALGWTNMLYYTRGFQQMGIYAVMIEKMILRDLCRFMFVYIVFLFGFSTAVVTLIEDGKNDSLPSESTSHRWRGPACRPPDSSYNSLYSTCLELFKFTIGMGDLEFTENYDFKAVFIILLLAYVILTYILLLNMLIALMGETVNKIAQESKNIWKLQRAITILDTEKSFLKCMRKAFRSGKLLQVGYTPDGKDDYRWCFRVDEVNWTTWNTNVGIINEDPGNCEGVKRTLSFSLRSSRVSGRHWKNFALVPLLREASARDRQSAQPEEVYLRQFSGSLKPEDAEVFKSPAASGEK

SMILES	Ki
CC(C)(C)c1ccc(NC(=O)c2ccc(-c3ccccn3)nc2)cc1 [Compound 9, [2,2′]Bipyridinyl-5-carboxylic acid (4-tert-butyl-phenyl)-amide]	< 1000 nM
CC(C)(C)c1ccc(NC(=O)c2ccc(-c3ccncc3)nc2)cc1 [Compound 11, [2,4′]Bipyridinyl-5-carboxylic acid (4-tert-butyl-phenyl)-amide]	< 1000 nM
CC(C)(C)c1ccc(NC(=O)c2ccc(-c3ncccc3C(F)(F)F)cc2N)cc1 [Compound 12, 2-Amino-N-(4-tert-butyl-phenyl)-4-(3-trifluoromethyl-pyridin-2-yl)-benzamide]	< 1000 nM
Nc1cc(-c2ncccc2C(F)(F)F)ccc1C(=O)Nc1ccc(C(F)(F)F)cc1 [Compound 13, 2-Amino-N-(4-trifluoromethyl-phenyl)-4-(3-trifluoromethyl-pyridin-2-yl)-benzamide]	< 1000 nM
Nc1cc(-c2ncccc2C(F)(F)F)ccc1C(=O)Nc1ccc(C(F)(F)F)nc1 [Compound 14, 2-Amino-N-(6-trifluoromethyl-pyridin-3-yl)-4-(3-trifluoromethyl-pyridin-2-yl)-benzamide]	< 1000 nM
CC(C)(C)c1ccc(NC(=O)c2ccc(-c3ccccc3Cl)cc2)cc1 [Compound 15, 2′-Chloro-biphenyl-4-carboxylic acid (4-tert-butyl-phenyl)-amide]	< 1000 nM
O=C(Nc1ccc(C(F)(F)F)cc1)c1ccc(-c2ncccc2C(F)(F)F)cc1O [Compound 16, 2-Hydroxy-N-(4-trifluoromethyl-phenyl)-4-(3-trifluoromethyl-pyridin-2-yl)-benzamide]	< 1000 nM
CS(=O)(=O)Nc1cc(-c2ncccc2C(F)(F)F)ccc1C(=O)Nc1ccc(C(F)(F)F)cc1 [Compound 17, 2-Methanesulfonylamino-N-(4-trifluoromethyl-phenyl)-4-(3-trifluoromethyl-pyridin-2-yl)-benzamide]	< 1000 nM
O=C(Nc1ccc(S(=O)(=O)C(F)(F)F)cc1)c1ccc(-c2ncccc2C(F)(F)F)cc1[N+](=O)[O-] [Compound 18, 2-Nitro-N-(4-trifluoromethanesulfonyl-phenyl)-4-(3-trifluoromethyl-pyridin-2-yl)-benzamide]	< 1000 nM
O=C(Nc1ccc(C(F)(F)F)cc1)c1ccc(-c2ncccc2C(F)(F)F)cc1[N+](=O)[O-] [Compound 19, 2-Nitro-N-(4-trifluoromethyl-phenyl)-4-(3-trifluoromethyl-pyridin-2-yl)-benzamide]	< 1000 nM
O=C(Nc1ccc(C(F)(F)F)nc1)c1ccc(-c2ncccc2C(F)(F)F)cc1[N+](=O)[O-] [Compound 20, 2-Nitro-N-(6-trifluoromethyl-pyridin-3-yl)-4-(3-trifluoromethyl-pyridin-2-yl)-benzamide]	< 1000 nM
CC(C)(C)c1ccc(NC(=O)c2ccc(-c3ccccc3C(F)(F)F)cc2O)cc1 [Compound 21, 3-Hydroxy-2′-trifluoromethyl-biphenyl-4-carboxylic acid (4-tert-butyl-phenyl)-amide]	< 1000 nM
CC(=O)N1CCCCC1c1ccc(C(=O)Nc2ccc(C(C)(C)C)cc2)cc1 (stereo not drawn) [Compound 22, 4-(1-Acetyl-piperidin-2-yl)-N-(4-tert-butyl-phenyl)-benzamide]	< 1000 nM
CC(C)(C)c1ccc(NC(=O)c2ccc(-c3ncccc3N)cc2)cc1 [Compound 23, 4-(3-Amino-pyridin-2-yl)-N-(4-tert-butyl-phenyl)-benzamide]	< 1000 nM
CC(C)(C)c1ccc(NC(=O)c2ccc(-c3ccncc3N)cc2)cc1 [Compound 24, 4-(3-Amino-pyridin-4-yl)-N-(4-tert-butyl-phenyl)-benzamide]	< 1000 nM
CC(C)(C)c1ccc(NC(=O)c2ccc(-c3ncccc3NS(=O)(=O)c3ccccc3)cc2)cc1 [Compound 25, 4-(3-Benzenesulfonylamino-pyridin-2-yl)-N-(4-tert-butyl-phenyl)-benzamide]	< 1000 nM
Cc1cc(NC(=O)c2ccc(-c3ncccc3Cl)cc2)ccc1C(C)C [Compound 26, 4-(3-Chloro-pyridin-2-yl)-N-(4-isopropyl-3-methyl-phenyl)-benzamide]	< 1000 nM

SMILES	Ki
CC(C)c1ccc(NC(=O)c2ccc(-c3ncccc3Cl)cc2)cc1 [Compound 27, 4-(3-Chloro-pyridin-2-yl)-N-(4-isopropyl-phenyl)-benzamide]	< 1000 nM
O=C(Nc1ccc(C(F)(F)F)cn1)c1ccc(-c2ncccc2Cl)cc1 [Compound 28, 4-(3-Chloro-pyridin-2-yl)-N-(5-trifluoromethyl-pyridin-2-yl)-benzamide]	< 1000 nM
CC(C)(O)c1ccc(NC(=O)c2ccc(-c3ncccc3Cl)cc2)cc1 [Compound 29, 4-(3-Chloro-pyridin-2-yl)-N-[4-(1-hydroxy-1-methyl-ethyl)-phenyl]-benzamide]	< 1000 nM
CC(c1ccc(NC(=O)c2ccc(-c3ncccc3Cl)cc2)cc1)C(F)(F)F (stereo not drawn) [Compound 30, 4-(3-Chloro-pyridin-2-yl)-N-[4-(2,2,2-trifluoro-1-methyl-ethyl)-phenyl]-benzamide]	< 1000 nM
COCC(C)(C)c1ccc(NC(=O)c2ccc(-c3ncccc3Cl)cc2)cc1 [Compound 31, 4-(3-Chloro-pyridin-2-yl)-N-[4-(2-methoxy-1,1-dimethyl-ethyl)-phenyl]-benzamide]	< 1000 nM
CC(C)(C#N)c1ccc(NC(=O)c2ccc(-c3ncccc3Cl)cc2)cc1 [Compound 32, 4-(3-Chloro-pyridin-2-yl)-N-[4-(cyano-dimethyl-methyl)-phenyl]-benzamide]	< 1000 nM
Cc1cc(NC(=O)c2ccc(-c3ncccc3F)cc2)ccc1C(C)C [Compound 33, 4-(3-Fluoro-pyridin-2-yl)-N-(4-isopropyl-3-methyl-phenyl)-benzamide]	< 1000 nM
CC(C)c1ccc(NC(=O)c2ccc(-c3ncccc3F)cc2)cc1 [Compound 34, 4-(3-Fluoro-pyridin-2-yl)-N-(4-isopropyl-phenyl)-benzamide]	< 1000 nM
O=C(Nc1ccc(C(F)(F)F)cc1)c1ccc(-c2ncccc2F)cc1 [Compound 35, 4-(3-Fluoro-pyridin-2-yl)-N-(4-trifluoromethyl-phenyl)-benzamide]	< 1000 nM
O=C(Nc1ccc(C(F)(F)F)cc1)c1ccc(-c2ncccc2[N+](=O)[O-])cc1 [Compound 36, 4-(3-Nitro-pyridin-2-yl)-N-(4-trifluoromethyl-phenyl)-benzamide]	< 1000 nM
CCCCS(=O)(=O)Nc1cccnc1-c1ccc(C(=O)Nc2ccc(C(C)(C)C)cc2)cc1 [Compound 37, 4-[3-(Butane-1-sulfonylamino)-pyridin-2-yl]-N-(4-eert-butyl-phenyl)-benzamide]	< 1000 nM
CCC(C)c1ccc(NC(=O)c2cnc(-c3ccccc3Cl)cn2)cc1 (stereo not drawn) [Compound 38, 5-(2-Chloro-phenyl)-pyrazine-2-carboxylic acid (4-sec-butyl-phenyl)-amide]	< 1000 nM
CC(C)(C)c1ccc(NC(=O)c2cnc(-c3ccccc3Cl)cn2)cc1 [Compound 39, 5-(2-Chloro-phenyl)-pyrazine-2-carboxylic acid (4-tert-butyl-phenyl)-amide]	< 1000 nM
CC(C)(C)c1ccc(NC(=O)c2ccc(-c3ccccc3Cl)cn2)cc1 [Compound 40, 5-(2-Chloro-phenyl)-pyridine-2-carboxylic acid (4-tert-butyl-phenyl)-amide]	< 1000 nM
Cc1ccc(C)c(-c2ccc(C(=O)Nc3ccc(C(F)(F)F)cc3)cn2)c1 [Compound 56, 6-(2,5-Dimethyl-phenyl)-N-(4-trifluoromethyl-phenyl)-nicotinamide]	< 1000 nM
CC(=O)c1ccccc1-c1ccc(C(=O)Nc2ccc(C(C)(C)C)cc2)cn1 [Compound 60, 6-(2-Acetyl-phenyl)-N-(4-tert-butyl-phenyl)-nicotinamide]	< 1000 nM
